Literature values as cited in patent US11938224B1, “Benzonatate modified release solid tablets and capsules” (Tris Pharma, Inc., priority 2016, dated 2024).

Conditions: room temperature, oily liquid

CCCCNc1ccc(C(=O)OCCOCCOCCOCCOCCOCCOCCOCCOCCOC)cc1 [Benzonatate, 2-[2-[2-[2-[2-[2-[2-[2-(2-methoxyethoxy)ethoxy]ethoxy]ethoxy]ethoxy]ethoxy]ethoxy]ethoxy] ethyl-4-butylaminobenzoate]
solubility in water: water soluble
